What was measured:
Assay type in all cases: in vivo
[1] = tested on: barnyard grass (Eo); assay: Test Example 1: herbicidal effects by flooded paddy field treatment; parameters: herbicidal effects, Eo (barnyard grass):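 0-5 growth inhibition grade; 5 = over 90%; 4 = 70-90%; 3 = 50-70%; 2 = 30-50%; 1 = 10-30%; 0 = under 10%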; settings: dose 100 g active ingredient per 10 ares, examined on the 21st day after treatment, standards of Table 44
Outline: (§1)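 Pots hold puddled paddy soil; seeds are sown and the pots flooded 3 cm deep. Next day, diluted wettable powder goes dropwise onto the water at a dose of 100 g active ingredient per 10 ares, and herbicidal effects are rated after 21 days in a greenhouse.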

[2] = tested on: monochoria (Mo); assay: as above; parameters: herbicidal effects, Mo (monochoria):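 0-5 growth inhibition grade; 5 = over 90%; 4 = 70-90%; 3 = 50-70%; 2 = 30-50%; 1 = 10-30%; 0 = under 10%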; settings: dose 100 g active ingredient per 10 ares, examined on the 21st day after treatment, standards of Table 44
Outline: as §1

[3] = tested on: barnyard grass (Ec); assay: Test Example 2: herbicidal effects by upland soil treatment; parameters: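 0-5 growth inhibition grade; 5 = over 90%; 4 = 70-90%; 3 = 50-70%; 2 = 30-50%; 1 = 10-30%; 0 = under 10%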; settings: dose 100 g active ingredient per 10 ares, examined on the 21st day after treatment
Outline: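 Pre-emergence test: barnyard grass and green foxtail sown in upland soil, then soil surface sprayed with wettable-powder formulation at 100 g active ingredient per 10 ares (100 l per 10 ares). Grown in greenhouse; herbicidal effect scored on a rating scale 21 days after treatment.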

[4] = tested on: barnyard grass (Ec); assay: Test Example 3: herbicidal effects by foliage treatment in upland field; parameters: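 0-5 growth inhibition grade; 5 = over 90%; 4 = 70-90%; 3 = 50-70%; 2 = 30-50%; 1 = 10-30%; 0 = under 10%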; settings: dose 100 g active ingredient per 10 ares, examined on the 14th day after treatment
Protocol: In a 80 cm^2 plastic pot, upland soil was filled, and seeds of barnyard grass (Ec) and green foxtail (Se) were sown and cultured in a green house for 2 weeks. Then, a wettable powder prepared in accordance with Formulation Example 1 was diluted with water and applied to the entire foliage from above the plants by means of a small size spray at a rate of 100 l per 10 ares so that the dose of the active ingredient would be 100 g per 10 ares. Thereafter, cultivation was carried out in a green house, and on the 14th day after the treatment, the herbicidal effects were examined in accordance with the standards of Table 44.

| Structure (SMILES) | herbicidal effects, Eo (barnyard grass) [1] | herbicidal effects, Mo (monochoria) [2] | Ec (herbicidal effects, index) [3] | Ec (herbicidal effects, index) [4] |
| --- | --- | --- | --- | --- |
| COc1ncncc1C(C(C)C)N(C)C(=O)Cc1ccc(F)cc1 (racemic) [1-402] | 5 | 5 | 5 | 5 |
| COc1ccccc1C(c1cncnc1C(F)(F)F)N(C)C(=O)Cc1ccccc1 (racemic) [1-488] | 5 | 5 | 5 | 5 |
| C#CCN(C(=O)Cc1ccc(Cl)cc1)C(c1cncnc1CC)C(C)C (racemic) [1-560] | 5 | 5 | 5 | 4 |
| CCCc1ncncc1C(C(C)C)N(C)C(=O)Cc1ccc(Cl)cc1 (racemic) [1-447] | 5 | 5 | 5 | 5 |
| CC(C)CC(c1cncnc1C(F)(F)F)N(C)C(=O)Cc1ccc(F)cc1 (racemic) [1-331] | 5 | 5 | 5 | 4 |
| CC(C)c1ncncc1C(C(C)C)N(C)C(=O)Cc1cccs1 (racemic) [2-23] | 5 | 5 | 5 | 4 |
| CCc1ncncc1C(C(C)C)N(C)C(=O)Cc1ccc(Cl)cc1 (racemic) [1-434] | 5 | 5 | 5 | 4 |
| CCc1ncncc1C(N(C)C(=O)Cc1ccc(F)cc1)C(C)(C)C (racemic) [1-565] | 5 | 5 | 5 | 5 |
| CC(C(=O)N(C)C(c1cncnc1C(F)(F)F)C(C)C)c1cccs1 (mixture of isomers) [2-62] | 5 | 5 | 5 | 4 |
| CON=CC(c1cncnc1C(C)C)N(C)C(=O)Cc1ccc(F)cc1 (racemic) [1-463] | 5 | 5 | 4 | 4 |
| CCCC(c1cncnc1C(C)C)N(C)C(=O)Cc1ccc(Cl)cc1 (racemic) [1-451] | 5 | 5 | 5 | 4 |
| CN(C(=O)Cc1ccccc1)C(c1ccccc1F)c1cncnc1C(F)(F)F (racemic) [1-546] | 5 | 5 | 5 | 4 |
| Cc1ccc(CC(=O)N(C)C(CC(C)C)c2cncnc2C(F)(F)F)s1 (racemic) [2-53] | 5 | 5 | 5 | 4 |
| CCCc1ncncc1C(C(C)C)N(C)C(=O)Cc1ccc(F)cc1 (racemic) [1-446] | 5 | 5 | 5 | 5 |
| CCC(C)C(c1cncnc1C(F)(F)F)N(C)C(=O)Cc1ccsc1 (mixture of isomers) [2-12] | 5 | 5 | 5 | 5 |
| COC(=O)c1ncncc1C(C(C)C)N(C)C(=O)C(C)c1ccc(Cl)cc1 (single isomer, unassigned) [Compound 1-592, 5-(1-{[2-(4-chlorophenyl)-propionyl]methylamino}-2-methylpropyl)-pyrimidine-4-carboxylic acid methyl ester] | 5 | 5 | 5 | 5 |
| CCCC(c1cncnc1C(C)C)N(C)C(=O)Cc1ccccc1 (racemic) [1-449] | 5 | 5 | 5 | 4 |
| CON=C(C)C(c1cncnc1C(C)C)N(C)C(=O)Cc1ccc(F)cc1 (racemic) [1-563] | 5 | 5 | 5 | 5 |
| CC(C)C(c1cncnc1C(F)(F)F)N(C)C(=O)N(C)c1ccccc1F (racemic) [1-536] | 5 | 5 | 5 | 4 |
| CC(C)CC(c1cncnc1C(F)(F)F)N(C)C(=O)Cc1ccccc1 (racemic) [1-330] | 5 | 5 | 5 | 4 |
| CCc1ncncc1C(C(C)C)N(C)C(=O)N(C)c1ccc(F)cc1 (racemic) [1-539] | 5 | 5 | 5 | 4 |
| CCCC(c1cncnc1C(C)C)N(C)C(=O)Cc1ccc(F)cc1 (racemic) [1-450] | 5 | 5 | 5 | 4 |
| CCC(C)C(c1cncnc1C(F)(F)F)N(C)C(=O)Cc1cccs1 (mixture of isomers) [2-11] | 5 | 5 | 5 | 5 |
| CC(C)C(c1cncnc1C(F)(F)F)N(C)C(=O)N(C)c1ccc(F)cc1F (racemic) [1-537] | 5 | 5 | 5 | 4 |
| COCc1ncncc1C(C(C)C)N(C)C(=O)Cc1ccc(Cl)cc1 (racemic) [1-589] | 5 | 5 | 5 | 4 |
| Cc1ccc(N(C)C(=O)N(C)C(c2cncnc2C(F)(F)F)C(C)C)cc1 (racemic) [1-428] | 5 | 5 | 5 | 4 |
| COCC(c1cncnc1C(C)C)N(C)C(=O)C(C)c1ccc(Cl)cc1 (mixture of isomers) [1-586] | 5 | 5 | 5 | 5 |
| CC(C)C(c1cncnc1C(F)(F)F)N(C)C(=O)N(C)c1ccc(F)cc1 (racemic) [1-426] | 5 | 5 | 5 | 4 |
| CON=Cc1ncncc1C(C(C)C)N(C)C(=O)Cc1ccc(F)cc1 (racemic) [1-497] | 5 | 5 | 5 | 4 |
